# What was measured:
# Test in all cases: relative viability (nuclei count vs DMSO), 5 days (fraction); higher = more cells survive
# [1] = test system: NCI-H1975
# Summary of the method: (§1)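 Relative viability was taken as the ratio of nuclei in treated wells to nuclei in vehicle wells. Lung cancer cell lines in 1536-well plates received compounds by pin tool one day after seeding, either one drug alone or a fixed anchor-drug dose plus five library-drug doses (not always all listed) in √10 steps. Nuclei were counted on 4× images after 5 days of treatment, and values are medians of duplicate plates.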
# [2] = test system: PC-3 [JPC-3]
# Summary of the method: as §1
# [3] = test system: NCI-H596
# Summary of the method: as §1
# [4] = test system: NCI-H1666
# Summary of the method: as §1
# [5] = test system: NCI-H1650
# Summary of the method: as §1
# [6] = test system: SK-LU-1
# Summary of the method: as §1
# [7] = test system: NCI-H322M
# Summary of the method: as §1
# [8] = test system: NCI-H661
# Summary of the method: as §1
# [9] = test system: NCI-H23
# Summary of the method: as §1
# [10] = test system: NCI-H727
# Summary of the method: as §1
# [11] = test system: NCI-H441
# Summary of the method: as §1
# [12] = test system: NCI-H647
# Summary of the method: as §1
# [13] = test system: NCI-H2342
# Summary of the method: as §1
# [14] = test system: LCLC-97TM1
# Summary of the method: as §1
# [15] = test system: NCI-H520
# Summary of the method: as §1
# [16] = test system: NCI-H838
# Summary of the method: as §1
# [17] = test system: NCI-H358
# Summary of the method: as §1
# [18] = test system: NCI-H522
# Summary of the method: as §1
# [19] = test system: NCI-H1915
# Summary of the method: as §1
# [20] = test system: NCI-H1437
# Summary of the method: as §1
# [21] = test system: NCI-H460
# Summary of the method: as §1
# [22] = test system: EKVX
# Summary of the method: as §1
smiles,measurement,setting,value
CN1CCN(CCOc2cc(OC3CCOCC3)c3c(Nc4c(Cl)ccc5c4OCO5)ncnc3c2)CC1 [Saracatinib] + Cc1cc(Nc2cc(N3CCN(C)CC3)nc(Sc3ccc(NC(=O)C4CC4)cc3)n2)n[nH]1 [Tozasertib] (partner 0.1 µM),relative viability,[1]; first compound 0.02 µM,0.697
same,relative viability,[1]; first compound 0.2 µM,0.709
same,relative viability,[1]; first compound 0.6325 µM,0.675
same,relative viability,[1]; first compound 2 µM,0.33
same,relative viability,[2]; first compound 0.02 µM,0.933
same,relative viability,[2]; first compound 0.2 µM,0.824
same,relative viability,[2]; first compound 0.6325 µM,0.834
same,relative viability,[2]; first compound 2 µM,0.469
same,relative viability,[3]; first compound 0.02 µM,0.8
same,relative viability,[3]; first compound 0.2 µM,0.847
same,relative viability,[3]; first compound 0.6325 µM,1.07
same,relative viability,[3]; first compound 2 µM,0.708
same,relative viability,[4]; first compound 0.02 µM,0.648
same,relative viability,[4]; first compound 0.2 µM,0.607
same,relative viability,[4]; first compound 0.6325 µM,0.66
same,relative viability,[4]; first compound 2 µM,0.625
same,relative viability,[5]; first compound 0.02 µM,0.435
same,relative viability,[5]; first compound 0.2 µM,0.294
same,relative viability,[5]; first compound 0.6325 µM,0.22
same,relative viability,[5]; first compound 2 µM,0.204
same,relative viability,[6]; first compound 0.02 µM,0.354
same,relative viability,[6]; first compound 0.2 µM,0.231
same,relative viability,[6]; first compound 0.6325 µM,0.172
same,relative viability,[6]; first compound 2 µM,0.132
same,relative viability,[7]; first compound 0.02 µM,0.501
same,relative viability,[7]; first compound 0.2 µM,0.313
same,relative viability,[7]; first compound 0.6325 µM,0.439
same,relative viability,[7]; first compound 2 µM,0.255
same,relative viability,[8]; first compound 0.02 µM,0.36
same,relative viability,[8]; first compound 0.2 µM,0.308
same,relative viability,[8]; first compound 0.6325 µM,0.342
same,relative viability,[8]; first compound 2 µM,0.328
same,relative viability,[9]; first compound 0.02 µM,0.743
same,relative viability,[9]; first compound 0.2 µM,0.345
same,relative viability,[9]; first compound 0.6325 µM,0.426
same,relative viability,[9]; first compound 2 µM,0.327
same,relative viability,[10]; first compound 0.02 µM,0.618
same,relative viability,[10]; first compound 0.2 µM,0.506
same,relative viability,[10]; first compound 0.6325 µM,0.525
same,relative viability,[10]; first compound 2 µM,0.454
same,relative viability,[11]; first compound 0.02 µM,0.557
same,relative viability,[11]; first compound 0.2 µM,0.601
same,relative viability,[11]; first compound 0.6325 µM,0.728
same,relative viability,[11]; first compound 2 µM,0.641
same,relative viability,[12]; first compound 0.02 µM,0.257
same,relative viability,[12]; first compound 0.2 µM,0.293
same,relative viability,[12]; first compound 0.6325 µM,0.275
same,relative viability,[12]; first compound 2 µM,0.231
same,relative viability,[13]; first compound 0.02 µM,0.499
same,relative viability,[13]; first compound 0.2 µM,0.608
same,relative viability,[13]; first compound 0.6325 µM,0.473
same,relative viability,[13]; first compound 2 µM,0.496
same,relative viability,[14]; first compound 0.02 µM,0.21
same,relative viability,[14]; first compound 0.2 µM,0.173
same,relative viability,[14]; first compound 0.6325 µM,0.287
same,relative viability,[14]; first compound 2 µM,0.185
same,relative viability,[15]; first compound 0.02 µM,0.407
same,relative viability,[15]; first compound 0.6325 µM,0.383
same,relative viability,[15]; first compound 2 µM,0.314
same,relative viability,[16]; first compound 0.02 µM,0.243
same,relative viability,[16]; first compound 0.2 µM,0.241
same,relative viability,[16]; first compound 0.6325 µM,0.264
same,relative viability,[16]; first compound 2 µM,0.246
same,relative viability,[17]; first compound 0.02 µM,0.118
same,relative viability,[17]; first compound 0.2 µM,0.0883
same,relative viability,[17]; first compound 0.6325 µM,0.0859
same,relative viability,[17]; first compound 2 µM,0.0757
same,relative viability,[18]; first compound 0.02 µM,0.557
same,relative viability,[18]; first compound 0.6325 µM,0.534
same,relative viability,[18]; first compound 2 µM,0.458
same,relative viability,[19]; first compound 0.02 µM,0.432
same,relative viability,[19]; first compound 0.2 µM,0.382
same,relative viability,[19]; first compound 0.6325 µM,0.461
same,relative viability,[19]; first compound 2 µM,0.343
same,relative viability,[20]; first compound 0.02 µM,0.431
same,relative viability,[20]; first compound 0.2 µM,0.31
same,relative viability,[20]; first compound 0.6325 µM,0.407
same,relative viability,[20]; first compound 2 µM,0.344
same,relative viability,[21]; first compound 0.02 µM,0.407
same,relative viability,[21]; first compound 0.2 µM,0.397
same,relative viability,[21]; first compound 0.6325 µM,0.433
same,relative viability,[21]; first compound 2 µM,0.279
same,relative viability,[22]; first compound 0.02 µM,0.357
same,relative viability,[22]; first compound 0.6325 µM,0.366
same,relative viability,[22]; first compound 2 µM,0.254

# From the supplement of paper PMC10307832
